Converted amounts (≈) assume the structure as drawn. Blank lines part the entries; values can stand above or below the compound they belong to.
Assays:
[1] = system: Methicillin-Resistant Staph. aureus (MRSA); experiment: MIC, NCCLS M7-A6 broth microdilution, MRSA; assay type: cell-based; conditions: 16 to 20 h, 35 degrees Celsius
Method in brief: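 Broth microdilution per NCCLS M7-A6 in cation-adjusted Mueller-Hinton broth, doubling dilutions, inoculum 5×10^5 CFU/mL, DMSO controls included. Read after 16–20 h at 35 °C in ambient air; MIC is lowest concentration preventing visible growth.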

[2] = system: Staphylococcus aureus EUP SAU040; experiment: MIC panel of challenge pathogens (CLSI); assay type: cell-based; conditions: Staphylococcus aureus EUP SAU040
Method: (§1) The inocula for each bacterial strain were prepared by picking 5-10 distinct colonies from the culture plates and suspending them in the appropriate broth as per Clinical and Laboratory Standards Institute (CLSI) guidelines M07-A8, M24-A or M11-A7 as appropriate. The inoculum was resuspended by vigorous shaking on a vortex mixer for 15 s. The turbidity was then adjusted to McFarland standard 0.5 ([…]). The inoculum was further diluted in the appropriate media for MIC tests to give a final inoculum in each well of 2-8×10^5 CFU/ml. MICs were tested in the appropriate broth in accordance with the appropriate CLSI guidelines.
(§2) A stock solution of each compound was prepared at a concentration of 1.28 g/L in DMSO. The stock was further diluted in the appropriate media to give a top starting concentration of 128 mg/L in the assay. 100 μL of the appropriate media, as per CLSI guidelines, was dispensed into each well in columns 2-12. 200 μL of the each compound solution (at 256 mg/L) was dispensed into each well in column 1. 100 μL aliquots were pipetted from column 1 wells and dispensed into column 2 with a multichannel pipette (±2% coefficient of variation) thus diluting two-fold. 100 μL samples were then pipetted from column 2 wells and dispensed into column 3. The process was repeated through to column 10. The final 100 μL of diluted drug from column 10 was then discarded. Row 11 acted as a positive control (no compound, but organisms added), Row 12 acted as a negative control (no compound, and no organisms added).
(§3) 100 μL of the appropriate inoculum suspension in the appropriate media, as per CLSI guidelines, was added to the appropriate wells. […] All plates were incubated in the dark under aerobic or anaerobic conditions at 30-37° C. for 24-48 hours, according to the appropriate CLSI guideline. Plates were read visually 24-48 hours post inoculation. Endpoints of 100% inhibition were determined (CLSI interpretation endpoints following visual examination).
(§4) MIC50, MIC80, and 100% inhibition results are reported below in μg/mL in the following Tables, indicating each compound tested against a given species and strain: […]

[3] = system: Staphylococcus aureus ATCC43300; experiment: MIC panel of challenge pathogens (CLSI); assay type: cell-based; conditions: Staphylococcus aureus ATCC43300
Method: as §1, §2, §3, §4

[4] = system: Staphylococcus aureus AUR58 7005; experiment: MIC panel of challenge pathogens (CLSI); assay type: cell-based; conditions: Staphylococcus aureus AUR58 7005
Method: as §1, §2, §3, §4

Bacillus cereus NCTC6349 = experiment: MIC panel of challenge pathogens (CLSI); assay type: cell-based; conditions: Bacillus cereus NCTC6349
Method: as §1, §2, §3, §4

[5] = system: Staphylococcus aureus EUP MRSA004; experiment: MIC panel of challenge pathogens (CLSI); assay type: cell-based; conditions: Staphylococcus aureus EUP MRSA004
Method: as §1, §2, §3, §4

[6] = system: Enterococcus faecalis ATCC51299; experiment: MIC panel of challenge pathogens (CLSI); assay type: cell-based; conditions: Enterococcus faecalis ATCC51299
Method: as §1, §2, §3, §4

[7] = system: Staphylococcus aureus EUP MRSA002; experiment: MIC panel of challenge pathogens (CLSI); assay type: cell-based; conditions: Staphylococcus aureus EUP MRSA002
Method: as §1, §2, §3, §4

[8] = system: Staphylococcus aureus NRS382; experiment: MIC panel of challenge pathogens (CLSI); assay type: cell-based; conditions: Staphylococcus aureus NRS382
Method: as §1, §2, §3, §4

AcpS enzyme = AcpS enzyme (Escherichia coli, UniProt P24224); experiment: Measurement of AcpS inhibition ([3H]acetyl-CoA incorporation into apo-ACP); assay type: biochemical; conditions: % activity vs blank-subtracted counts
Method in brief: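 Acetyl transfer from [3H]acetyl-CoA (labelled stock mixed with unlabelled acetyl-CoA) onto apo-ACP by E. coli AcpS at RT, started with substrate; aliquots TCA-precipitated at time points up to 60 min. Pellet radioactivity by scintillation; results as % activity of blank-subtracted substrate counts.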

[9] = system: Staphylococcus aureus EUP MRSA002; experiment: MIC panel of challenge pathogens (CLSI), EUP MRSA002; assay type: cell-based; conditions: Staphylococcus aureus EUP MRSA002
Method: as §1, §2, §3, §4

[10] = EUPMRSA002, read-out: 100% inhibition
[11] = EUPMRSA002, read-out: MIC50 (50%)
[12] = EUPMRSA002, read-out: MIC80 (80%)

AcpS enzyme, sequence (P24224 whole entry): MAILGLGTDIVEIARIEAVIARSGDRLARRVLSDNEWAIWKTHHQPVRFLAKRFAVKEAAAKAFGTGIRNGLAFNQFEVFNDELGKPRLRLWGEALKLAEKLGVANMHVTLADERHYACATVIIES

Compound: Cc1ccc(-c2cc(-c3nn[nH]n3)cc(-c3ccccc3-c3ccccc3)c2)c2ccccc12 [DNM0474]
MIC MRSA [1]: 2 µM (≈ 0.877 µg/mL)
100% inhibition [2]: 0.25 µg/mL
MIC50 (50%) [2]: 0.5 µg/mL (≈ 1.14 µM)
MIC80 (80%) [2]: 0.5 µg/mL (≈ 1.14 µM)
100% inhibition [3]: 0.5 µg/mL
MIC50 (50%) [3]: 0.5 µg/mL (≈ 1.14 µM)
MIC80 (80%) [3]: 0.5 µg/mL (≈ 1.14 µM)
100% inhibition [4]: 1 µg/mL
MIC50 (50%) [4]: 0.5 µg/mL (≈ 1.14 µM)
MIC80 (80%) [4]: 1 µg/mL (≈ 2.28 µM)
100% inhibition (Bacillus cereus NCTC6349): ≦0.25 μg/mL
MIC50 (50%) (Bacillus cereus NCTC6349): ≦0.25 μg/mL
MIC80 (80%) (Bacillus cereus NCTC6349): ≦0.25 μg/mL
100% inhibition [5]: 0.5 µg/mL
MIC50 (50%) [5]: 0.5 µg/mL (≈ 1.14 µM)
MIC80 (80%) [5]: 0.5 µg/mL (≈ 1.14 µM)
100% inhibition [6]: 1 µg/mL
MIC50 (50%) [6]: 1 µg/mL (≈ 2.28 µM)
MIC80 (80%) [6]: 1 µg/mL (≈ 2.28 µM)
100% inhibition [7]: 1 µg/mL
MIC50 (50%) [7]: 1 µg/mL (≈ 2.28 µM)
MIC80 (80%) [7]: 1 µg/mL (≈ 2.28 µM)
100% inhibition [8]: 0.5 µg/mL
MIC50 (50%) [8]: 0.5 µg/mL (≈ 1.14 µM)
MIC80 (80%) [8]: 0.5 µg/mL (≈ 1.14 µM)
% AcpS activity at 50 uM (AcpS enzyme; test compound 50 uM): 15.08%
% AcpS activity @ 500 uM (AcpS enzyme; test compound 500 uM): 0.3%
100% inhibition [9]: 0.5 µg/mL
MIC50 (50%) [9]: 0.5 µg/mL (≈ 1.14 µM)
MIC80 (80%) [9]: 0.5 µg/mL (≈ 1.14 µM)

MIC ([2]; EUPSAU040, read-out: 100% inhibition): 0.5 µg/mL (≈ 1.15 µM)
MIC50 ([2]; EUPSAU040, read-out: MIC50 (50%)): 0.5 µg/mL (≈ 1.15 µM)
MIC80 ([2]; EUPSAU040, read-out: MIC80 (80%)): 0.5 µg/mL (≈ 1.15 µM)
MIC ([3]; read-out: 100% inhibition): ≤ 0.25 µg/mL
MIC50 ([3]; read-out: MIC50 (50%)): ≤ 0.25 µg/mL
MIC80 ([3]; read-out: MIC80 (80%)): ≤ 0.25 µg/mL
MIC ([4]; AUR587005, read-out: 100% inhibition): 1 µg/mL (≈ 2.31 µM)
MIC50 ([4]; AUR587005, read-out: MIC50 (50%)): 1 µg/mL (≈ 2.31 µM)
MIC80 ([4]; AUR587005, read-out: MIC80 (80%)): 1 µg/mL (≈ 2.31 µM)
MIC (Bacillus cereus NCTC6349; read-out: 100% inhibition): ≤ 0.25 µg/mL
MIC50 (Bacillus cereus NCTC6349; read-out: MIC50 (50%)): ≤ 0.25 µg/mL
MIC80 (Bacillus cereus NCTC6349; read-out: MIC80 (80%)): ≤ 0.25 µg/mL
MIC ([5]; EUPMRSA004, read-out: 100% inhibition): ≤ 0.25 µg/mL
MIC50 ([5]; EUPMRSA004, read-out: MIC50 (50%)): ≤ 0.25 µg/mL
MIC80 ([5]; EUPMRSA004, read-out: MIC80 (80%)): ≤ 0.25 µg/mL
MIC ([6]; read-out: 100% inhibition): 0.5 µg/mL (≈ 1.15 µM)
MIC50 ([6]; read-out: MIC50 (50%)): 0.5 µg/mL (≈ 1.15 µM)
MIC80 ([6]; read-out: MIC80 (80%)): 0.5 µg/mL (≈ 1.15 µM)
MIC [7, 10]: ≤ 0.25 µg/mL
MIC50 [7, 11]: ≤ 0.25 µg/mL
MIC80 [7, 12]: ≤ 0.25 µg/mL
MIC ([8]; read-out: 100% inhibition): 0.5 µg/mL (≈ 1.15 µM)
MIC50 ([8]; read-out: MIC50 (50%)): 0.5 µg/mL (≈ 1.15 µM)
MIC80 ([8]; read-out: MIC80 (80%)): 0.5 µg/mL (≈ 1.15 µM)
MIC [9, 10]: ≤ 0.25 µg/mL
MIC50 [9, 11]: ≤ 0.25 µg/mL
MIC80 [9, 12]: ≤ 0.25 µg/mL
Compound: CC(C)c1cc(Cl)ccc1-c1cc(C(=O)O)sc1-c1ccc(Cl)cc1C(C)C [DNM0566, 4,5-Bis(4-chloro-2-isopropylphenyl)thiophene-2-carboxylic acid]

From patent publication US9012655B2, “Antimicrobial/adjuvant compounds and methods” (Denouamed, Inc., priority 2011, dated 2015)
